Three compounds from ChEMBL document CHEMBL1201862, “PubChem BioAssay data set” (2004) can be followed below.

Assay [1] concerns the target T1, Histone-lysine N-methyltransferase NSD2 (Homo sapiens, UniProt O96028).
T1 sequence (O96028 whole entry): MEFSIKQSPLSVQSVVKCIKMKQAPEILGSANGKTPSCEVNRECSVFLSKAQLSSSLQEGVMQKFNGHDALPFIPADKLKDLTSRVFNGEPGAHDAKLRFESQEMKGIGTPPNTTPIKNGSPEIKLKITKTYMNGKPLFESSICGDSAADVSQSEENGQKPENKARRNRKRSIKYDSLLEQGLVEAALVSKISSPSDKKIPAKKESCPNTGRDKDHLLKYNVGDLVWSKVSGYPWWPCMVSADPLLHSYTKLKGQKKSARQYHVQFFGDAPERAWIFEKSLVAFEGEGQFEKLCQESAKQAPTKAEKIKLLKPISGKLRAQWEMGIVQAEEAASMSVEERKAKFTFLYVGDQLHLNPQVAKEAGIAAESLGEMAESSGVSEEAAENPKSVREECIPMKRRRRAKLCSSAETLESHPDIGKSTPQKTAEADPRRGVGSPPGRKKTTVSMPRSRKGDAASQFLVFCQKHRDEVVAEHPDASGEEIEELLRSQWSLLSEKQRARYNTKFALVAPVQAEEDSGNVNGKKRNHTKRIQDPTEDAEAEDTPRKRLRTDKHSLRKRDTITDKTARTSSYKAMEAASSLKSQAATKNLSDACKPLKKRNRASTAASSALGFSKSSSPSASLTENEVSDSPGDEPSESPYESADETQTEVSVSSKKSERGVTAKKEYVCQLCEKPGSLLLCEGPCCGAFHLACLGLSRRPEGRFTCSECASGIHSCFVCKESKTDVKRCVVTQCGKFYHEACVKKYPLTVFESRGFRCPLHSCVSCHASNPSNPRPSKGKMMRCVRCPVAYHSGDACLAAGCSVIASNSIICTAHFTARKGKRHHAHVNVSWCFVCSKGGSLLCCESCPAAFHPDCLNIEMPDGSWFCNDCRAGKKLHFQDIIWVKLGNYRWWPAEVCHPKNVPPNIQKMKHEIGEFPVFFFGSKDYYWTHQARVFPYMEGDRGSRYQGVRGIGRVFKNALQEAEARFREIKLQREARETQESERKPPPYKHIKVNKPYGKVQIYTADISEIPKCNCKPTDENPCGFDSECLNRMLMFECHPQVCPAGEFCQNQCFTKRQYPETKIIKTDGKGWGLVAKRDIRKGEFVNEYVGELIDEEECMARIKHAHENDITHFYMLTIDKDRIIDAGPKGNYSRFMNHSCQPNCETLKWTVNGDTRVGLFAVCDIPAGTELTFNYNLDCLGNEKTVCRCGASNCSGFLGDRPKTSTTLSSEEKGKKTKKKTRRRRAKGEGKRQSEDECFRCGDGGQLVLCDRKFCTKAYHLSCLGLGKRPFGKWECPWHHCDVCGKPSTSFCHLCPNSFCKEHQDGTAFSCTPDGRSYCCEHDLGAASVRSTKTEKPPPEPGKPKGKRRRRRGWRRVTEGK
The assay is classed as biochemical.

Assay [2] deals with T2, Mannose-6-phosphate isomerase (Homo sapiens, UniProt P34949).
T2 sequence (P34949 whole entry): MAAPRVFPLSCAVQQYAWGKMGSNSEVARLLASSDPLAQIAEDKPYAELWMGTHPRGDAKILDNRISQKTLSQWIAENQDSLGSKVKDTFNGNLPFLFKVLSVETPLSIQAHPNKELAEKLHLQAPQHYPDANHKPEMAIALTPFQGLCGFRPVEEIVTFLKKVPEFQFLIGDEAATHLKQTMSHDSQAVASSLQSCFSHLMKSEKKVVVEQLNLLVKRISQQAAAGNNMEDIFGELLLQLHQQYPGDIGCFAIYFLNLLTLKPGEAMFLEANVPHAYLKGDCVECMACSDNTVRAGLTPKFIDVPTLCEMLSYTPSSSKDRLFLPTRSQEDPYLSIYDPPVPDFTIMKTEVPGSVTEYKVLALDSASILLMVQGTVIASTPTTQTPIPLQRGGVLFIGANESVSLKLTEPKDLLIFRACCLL
Nature of the assay: human PMI inhibitors, high substrate, primary screen, biochemical, fluorescence intensity, high mannose 6-phosphate (AID 1220).

Another assay has as its target T3, Insulin-degrading enzyme (Homo sapiens, UniProt P14735).
T3 sequence (P14735 whole entry): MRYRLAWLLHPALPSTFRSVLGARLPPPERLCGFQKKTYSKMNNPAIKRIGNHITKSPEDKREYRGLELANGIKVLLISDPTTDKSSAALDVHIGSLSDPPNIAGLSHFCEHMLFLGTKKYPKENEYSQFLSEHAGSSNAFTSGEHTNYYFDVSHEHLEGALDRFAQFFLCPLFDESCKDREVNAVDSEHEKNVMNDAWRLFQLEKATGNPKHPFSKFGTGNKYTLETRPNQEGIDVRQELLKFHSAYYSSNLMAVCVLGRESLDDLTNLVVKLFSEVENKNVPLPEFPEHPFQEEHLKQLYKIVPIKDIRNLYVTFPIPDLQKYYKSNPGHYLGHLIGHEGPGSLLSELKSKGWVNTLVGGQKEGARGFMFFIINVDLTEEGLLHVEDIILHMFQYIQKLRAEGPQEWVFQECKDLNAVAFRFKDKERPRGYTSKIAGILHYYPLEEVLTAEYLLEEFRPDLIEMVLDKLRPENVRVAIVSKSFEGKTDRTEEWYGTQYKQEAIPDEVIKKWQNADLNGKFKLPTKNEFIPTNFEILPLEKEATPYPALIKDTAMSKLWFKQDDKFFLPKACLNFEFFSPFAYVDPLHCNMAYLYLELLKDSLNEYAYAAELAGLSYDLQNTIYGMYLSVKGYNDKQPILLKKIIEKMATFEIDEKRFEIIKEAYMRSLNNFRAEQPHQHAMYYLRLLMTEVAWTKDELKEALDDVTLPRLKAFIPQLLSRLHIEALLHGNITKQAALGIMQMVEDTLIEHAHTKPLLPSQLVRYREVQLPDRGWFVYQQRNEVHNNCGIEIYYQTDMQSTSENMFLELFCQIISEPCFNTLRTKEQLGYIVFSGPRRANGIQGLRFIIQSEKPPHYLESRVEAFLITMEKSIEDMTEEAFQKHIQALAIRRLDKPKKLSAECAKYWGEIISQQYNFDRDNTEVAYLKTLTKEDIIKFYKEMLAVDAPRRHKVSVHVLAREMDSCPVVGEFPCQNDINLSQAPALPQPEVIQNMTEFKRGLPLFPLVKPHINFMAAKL
Nature of the assay: activators of recombinant IDE enzyme, dose response, counter-screen for IDE activator project, biochemical, fluorescence polarization (AID 588681).

Another assay addresses Beta-lactamase (Pseudomonas aeruginosa, UniProt Q79MP6).
The next assay concerns the target Phospholipase A2 (Homo sapiens, UniProt P04054). The class given is functional.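 Also: confirmatory dose-response counterscreen on phospholipase A2, testing hits that came from an ultra-high-throughput screen for ATG4B inhibitors.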
Another assay addresses Mu-type opioid receptor (Homo sapiens, UniProt P35372). In words: Counterscreen for agonists of heterodimerization of the mu 1 (OPRM1) and delta 1 (OPRD1) opioid receptors: Luminescence-based cell-based high throughput dose response assay to identify agonists of OPRM1 homodimerization. The class given is functional.

Calls of active or inactive are those of the source.

Chain of Beta-lactamase (Q79MP6 whole entry): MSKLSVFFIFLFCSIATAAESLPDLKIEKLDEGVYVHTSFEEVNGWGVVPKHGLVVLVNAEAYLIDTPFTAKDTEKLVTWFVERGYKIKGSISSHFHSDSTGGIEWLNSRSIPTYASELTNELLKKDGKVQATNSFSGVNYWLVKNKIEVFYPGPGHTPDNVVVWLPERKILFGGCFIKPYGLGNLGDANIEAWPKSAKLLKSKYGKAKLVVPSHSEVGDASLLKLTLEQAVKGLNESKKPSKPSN
Chain of Phospholipase A2 (P04054 whole entry): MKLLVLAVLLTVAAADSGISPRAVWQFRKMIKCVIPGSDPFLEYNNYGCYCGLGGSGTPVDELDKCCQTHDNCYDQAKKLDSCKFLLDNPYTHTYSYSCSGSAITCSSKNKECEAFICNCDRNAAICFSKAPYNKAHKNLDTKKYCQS
Chain of Mu-type opioid receptor (P35372 whole entry): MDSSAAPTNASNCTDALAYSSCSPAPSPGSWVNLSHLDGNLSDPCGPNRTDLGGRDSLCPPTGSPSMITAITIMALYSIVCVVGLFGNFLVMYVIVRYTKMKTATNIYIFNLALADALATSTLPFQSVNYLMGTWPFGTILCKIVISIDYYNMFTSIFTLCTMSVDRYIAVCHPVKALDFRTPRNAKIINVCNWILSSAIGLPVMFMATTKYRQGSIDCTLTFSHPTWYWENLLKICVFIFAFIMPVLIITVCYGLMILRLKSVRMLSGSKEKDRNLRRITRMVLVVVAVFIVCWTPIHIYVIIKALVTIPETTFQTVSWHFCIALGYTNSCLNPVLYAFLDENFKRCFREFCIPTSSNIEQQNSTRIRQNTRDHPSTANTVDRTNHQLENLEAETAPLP

Turning to `COc1cc(OC)c(-c2c3cc(O)c(=O)cc-3oc3cc(O)c(O)cc23)cc1OC`, in assay [1], the concentration at half-maximal activity (AC50) is 0.282 µM (active). Besides, the IC50 in assay [2] was > 50 µM (not active); on Beta-lactamase, 5.62 µM (active). In addition, the EC50 at Insulin-degrading enzyme is > 54.7 µM (inactive).

As for `Oc1nc(Nc2ccccc2)cc2ccccc12`, the IC50 on Phospholipase A2 is > 80 µM (inactive).

In the case of `CCCCCCCCCCOC(=O)C[n+]1c(COc2ccccc2C)n(C)c2ccccc21`, at Mu-type opioid receptor, the EC50 was > 92.5 µM (inactive).
